From patent US10065990B2, “Cyclic peptide compound, and preparation method, pharmaceutical composition and use thereof” (HANGZHOU GUANYU BIO-MEDICAL CO., LTD, priority 2013, dated 2018)
Read-outs that look alike come from different tables or passages of the source.

Key:
[1] = molecular target: T1, HDAC8 (Homo sapiens, UniProt Q9BY41); assay: HDAC biochemical activity measurement (fluorescent substrate deacetylation); settings: 37° C. 30 minutes
T1 sequence (Q9BY41 1-377): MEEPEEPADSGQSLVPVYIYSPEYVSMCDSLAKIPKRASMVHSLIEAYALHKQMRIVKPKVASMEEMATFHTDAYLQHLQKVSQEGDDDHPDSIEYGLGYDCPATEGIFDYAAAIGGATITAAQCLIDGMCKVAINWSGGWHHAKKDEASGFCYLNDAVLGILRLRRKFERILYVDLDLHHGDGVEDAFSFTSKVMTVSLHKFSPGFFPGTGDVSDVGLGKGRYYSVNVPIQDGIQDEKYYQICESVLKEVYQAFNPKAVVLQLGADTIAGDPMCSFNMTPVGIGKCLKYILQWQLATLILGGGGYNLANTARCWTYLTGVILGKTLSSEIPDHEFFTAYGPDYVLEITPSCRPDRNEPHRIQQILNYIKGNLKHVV

[2] = test system: HT1080 (human fibrosarcoma cells); assay: MTT cancer cell growth inhibition; format: cell-based; settings: Homo sapiens, HT-1080, 72 h, MTT
Summary of the method: (§1)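 GI50 values come from MTT viability: after 72 h compound exposure (final 10^−5–10^−10 M, three wells each) of cells plated overnight at 1500/well in 10% FBS medium, MTT was given for 4 h. The DMSO-solubilised formazan was then measured at 570 nm.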

[3] = test system: Bel-7402 (human hepatoma cells); assay: MTT cancer cell growth inhibition; format: cell-based; settings: Homo sapiens, Bel-7402, 72 h, MTT, 72 hours incubation, Bel-7402 cells; read-out: GI50 Bel-7402
Summary of the method: as §1

[4] = test system: DU145 (human prostate cancer cells); assay: MTT cancer cell growth inhibition; format: cell-based; settings: MTT
Summary of the method: as §1

[5] = test system: A549 (human lung cancer cells); assay: MTT cancer cell growth inhibition; format: cell-based; settings: Homo sapiens, A549, 72 h, MTT
Summary of the method: as §1

[6] = test system: SGC-7901 (human gastric cancer cells); assay: MTT cancer cell growth inhibition; format: cell-based; settings: Homo sapiens, SGC-7901, 72 h, MTT, 72 hours incubation, SGC-7901 cells; read-out: GI50 SGC-7901
Summary of the method: as §1

[7] = test system: MOLT-4 (human acute lymphoblastic leukemia cells); assay: MTT cancer cell growth inhibition; format: cell-based; settings: Homo sapiens, MOLT-4, 72 h, MTT
Summary of the method: as §1

[8] = test system: Hela (human cervical cancer cells); assay: MTT cancer cell growth inhibition; format: cell-based; settings: Homo sapiens, HeLa, 72 h, MTT
Summary of the method: as §1

[9] = test system: U937 (human leukemia cells); assay: MTT cancer cell growth inhibition; format: cell-based; settings: Homo sapiens, U-937, 72 h, MTT
Summary of the method: as §1

[10] = test system: HCC827 (human non-small cell lung cancer cells); assay: MTT cancer cell growth inhibition; format: cell-based; settings: Homo sapiens, HCC827, 72 h, MTT, 72 hours incubation, HCC827 cells; read-out: GI50 HCC827
Summary of the method: as §1

[11] = test system: BGC-823 (human gastric cancer cells); assay: MTT cancer cell growth inhibition; format: cell-based; settings: MTT
Summary of the method: as §1

[12] = test system: PANC-1 (Pac-1, human pancreatic cancer cells); assay: MTT cancer cell growth inhibition; format: cell-based; settings: Homo sapiens, PANC-1, 72 h, MTT
Summary of the method: as §1

[13] = test system: MDA-MB-231 (breast cancer cells); assay: MTT cancer cell growth inhibition; format: cell-based; settings: Homo sapiens, MDA-MB-231, 72 h, read-out: GI50 MDA-MB-231, MTT, 72 hours incubation, MDA-MB-231 cells
Summary of the method: as §1

[14] = test system: MCF-7 (human breast cancer cells); assay: MTT cancer cell growth inhibition; format: cell-based; settings: Homo sapiens, MCF7, 72 h
Summary of the method: as §1

[15] = test system: N-87 (human gastric cancer cells); assay: MTT cancer cell growth inhibition; format: cell-based; settings: Homo sapiens, 72 h, MTT, 72 hours incubation, N-87 cells; read-out: GI50 N-87
Summary of the method: as §1

[16] = test system: Huh-7 (human hepatoma cells); assay: MTT cancer cell growth inhibition; format: cell-based; settings: Homo sapiens, Huh-7, 72 h, MTT, 72 hours incubation, Huh-7 cells; read-out: GI50 Huh-7
Summary of the method: as §1

[17] = molecular target: HDAC1 (Homo sapiens, UniProt Q13547); assay: HDAC biochemical activity measurement (fluorescent substrate deacetylation);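 note: fluorogenic acetyl-lysine substrate (20 µM) deacetylated by HDAC1, then developer releases fluorophore read at 360 nm excitation and 460 nm emission, inhibitor incubated 30 min at 37 °C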
HDAC1, sequence (Q13547 whole entry, species assumed): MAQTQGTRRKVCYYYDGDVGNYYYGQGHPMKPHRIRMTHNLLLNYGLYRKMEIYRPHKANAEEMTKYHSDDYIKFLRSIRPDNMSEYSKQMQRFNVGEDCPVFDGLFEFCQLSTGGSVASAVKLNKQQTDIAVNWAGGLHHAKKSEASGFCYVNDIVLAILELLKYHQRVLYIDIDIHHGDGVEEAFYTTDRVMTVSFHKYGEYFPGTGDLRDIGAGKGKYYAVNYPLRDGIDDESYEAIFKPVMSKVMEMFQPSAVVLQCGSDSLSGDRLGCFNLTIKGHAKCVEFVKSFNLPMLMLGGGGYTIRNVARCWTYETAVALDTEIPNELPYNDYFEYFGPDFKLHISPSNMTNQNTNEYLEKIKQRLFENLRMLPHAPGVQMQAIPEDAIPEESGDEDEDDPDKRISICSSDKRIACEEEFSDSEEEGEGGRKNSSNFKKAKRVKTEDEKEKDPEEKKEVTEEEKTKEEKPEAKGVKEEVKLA
Experimental: The chemical activity of the compound is determined according to the degree of deacetylation inhibition of the HDAC enzyme. This experiment measured the degree of deacetylation related to tumor proliferation and metastasis of HDAC1, HDAC2, HDAC3, HDAC8, HDAC11 five subtypes HDAC enzymes. After the substrate containing an acetylated lysine side chain and HDAC enzyme are labeled with a fluorescent label, the fluorescent substrate is de acetyl. The fluorescent labeled substrate is cleaved by the enzyme, and the fluorescent substance is released, which generates 460 nm emission light under the excitation of 360 nm light.
HDAC substrate was diluted with reaction buffer to 200M (reaction concentration of 20M), the HDAC enzyme was diluted to the appropriate concentration, then added different concentrations of the test compounds and acted at 37° C. 30 minutes, and then added the same volume of 2-times concentration substrate developing solution (developer), incubated at room temperature for 15 minutes.

[18] = molecular target: T2, HDAC11 (Homo sapiens, UniProt Q96DB2); assay: as above;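 note: HDAC11 enzyme acting on an acetyl-lysine fluorogenic substrate, then a developer frees the fluorophore, read at excitation 360 nm and emission 460 nm, IC50 over a compound dilution series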
T2 sequence (Q96DB2 1-347): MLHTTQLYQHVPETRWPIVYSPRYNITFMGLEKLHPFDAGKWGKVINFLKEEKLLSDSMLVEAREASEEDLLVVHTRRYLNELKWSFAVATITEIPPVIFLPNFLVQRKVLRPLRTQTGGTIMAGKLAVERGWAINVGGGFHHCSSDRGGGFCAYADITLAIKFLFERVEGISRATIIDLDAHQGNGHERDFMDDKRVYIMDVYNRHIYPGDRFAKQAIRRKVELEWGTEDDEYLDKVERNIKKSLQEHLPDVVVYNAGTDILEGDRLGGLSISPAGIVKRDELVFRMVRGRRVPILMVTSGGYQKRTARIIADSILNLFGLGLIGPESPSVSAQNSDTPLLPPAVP

[19] = HT1080 cells, 72 hours incubation, read-out: GI50 HT1
[20] = Homo sapiens, DU-145, 72 h, DU145 cells, 72 hours incubation, read-out: GI50 Du1
[21] = A549 cells, 72 hours incubation, read-out: GI50 A54
[22] = MOLT-4 cells, 72 hours incubation, read-out: GI50 Mol
[23] = U937 cells, 72 hours incubation, read-out: GI50 U93
[24] = Homo sapiens, BGC-823, 72 h, BGC-823 cells, 72 hours incubation, read-out: GI50 BG
[25] = PANC-1 cells, 72 hours incubation, read-out: GI50 PAN
[26] = MCF-7 cells, 72 hours incubation, read-out: GI50 MCF
[27] = HDAC1, 37° C. 30 minutes, read-out: IC50 HDAC1
[28] = read-out: IC50 HDAC11, HDAC11, 37° C. 30 minutes
[29] = 72 hours incubation, read-out: GI50 HT1
[30] = 72 hours incubation, read-out: GI50 A54
[31] = 72 hours incubation, read-out: GI50 Mol
[32] = 72 hours incubation, read-out: GI50 Hela
[33] = 72 hours incubation, read-out: GI50 U93
[34] = 72 hours incubation, read-out: GI50 PAN
[35] = 72 hours incubation, read-out: GI50 MCF
[36] = Homo sapiens, DU-145, 72 h, 72 hours incubation, read-out: GI50 Du1
[37] = Homo sapiens, BGC-823, 72 h, 72 hours incubation, read-out: GI50 BG

IC50 [1]	GI50 [3]	GI50 [6]	GI50 [10]	GI50 [13]	GI50 [15]	GI50 [16]	IC50 [17, 27]	IC50 [18, 28]	GI50 [2, 29]	GI50 [5, 30]	GI50 [7, 31]	GI50 [8, 32]	GI50 [9, 33]	GI50 [12, 34]	GI50 [14, 35]	IC50 [18]	GI50 [4, 36]	GI50 [11, 37]	SMILES	other results
89 nM	29 nM	36 nM	28 nM	35 nM	83 nM	92 nM	92 nM	37 nM											C=C1NC(=O)c2cccc(n2)CNC(=O)C[C@@H](/C=C/CCSC(=O)CCCCCCC)OC(=O)[C@H](C(C)C)NC1=O [Compound 244]	GI50 [2, 19]: 760 nM; GI50 ([2]; 72 hours, present invention, read-out: GI50 HT1080, a): 760 nM; GI50 [4, 20]: 950 nM; GI50 ([4]; Homo sapiens, DU-145, 72 h, 72 hours, present invention, read-out: GI50 Du145, a): 950 nM; GI50 [5, 21]: 120 nM; GI50 ([5]; 72 hours, present invention, read-out: GI50 A549, a): 120 nM; GI50 [7, 22]: 110 nM; GI50 ([7]; 72 hours, present invention, read-out: GI50 Molt-4, a): 110 nM; GI50 ([8]; 72 hours, present invention, read-out: GI50 Hela, a): 8 nM; GI50 ([9]; 72 hours, present invention, read-out: GI50 U937, a): 890 nM; GI50 [9, 23]: 890 nM; GI50 [11, 24]: 390 nM; GI50 ([11]; Homo sapiens, BGC-823, 72 h, 72 hours, present invention, read-out: GI50 BGC823, a): 390 nM; GI50 ([12]; 72 hours, present invention, read-out: GI50 PANC-1, a): 770 nM; GI50 [12, 25]: 770 nM; GI50 ([14]; 72 hours, present invention, read-out: GI50 MCF7, a): 330 nM; GI50 [14, 26]: 330 nM; IC50 ([17]; Table 2, read-out: IC50 HDAC1, a (compounds of the present invention)): < 100 nM
28 nM	84 nM	41 nM	84 nM	33 nM	37 nM	33 nM	42 nM		80 nM	40 nM	30 nM	60 nM	30 nM	80 nM	30 nM	91 nM			C/C=C1\NC(=O)c2cc(F)cc(n2)CNC(=O)C[C@@H](/C=C/CCSC(C)=O)OC(=O)[C@H](C(C)C)NC1=O [Compound 94]	GI50 ([4]; 72 hours incubation, read-out: GI50 Du1): 30 nM; GI50 ([11]; 72 hours incubation, read-out: GI50 BG): 30 nM
35 nM	62 nM	47 nM	62 nM	43 nM	39 nM	43 nM	11 nM	85 nM	60 nM	40 nM	40 nM	60 nM	20 nM	60 nM	50 nM		20 nM	30 nM	C/C=C1\NC(=O)c2nc(ccc2F)CNC(=O)C[C@@H](/C=C/CCSC(=O)CCCCC)OC(=O)[C@H](C(C)C)NC1=O [Compound 36]	IC50 ([17]; Table 3, column C, read-out: IC50 HDAC1, C (six-membered ring with substituents)): 11 nM
41 nM	72 nM	45 nM	72 nM	29 nM	65 nM	29 nM	46 nM		70 nM	40 nM	20 nM	80 nM	60 nM	70 nM	70 nM	103 nM	40 nM	60 nM	C/C=C1\NC(=O)c2nc(ccc2F)CNC(=O)C[C@@H](/C=C/CCSC=O)OC(=O)[C@H](C(C)C)NC1=O [Example 51]	
36 nM	58 nM	76 nM	32 nM	26 nM	55 nM	42 nM	91 nM									99 nM			C/C=C1\NC(=O)c2cc(SC)cc(n2)CNC(=O)C[C@@H](/C=C/CCSC(C)=O)OC(=O)[C@H](CC)NC1=O [Compound 178]	GI50 [2, 19]: 20 nM; GI50 [4, 20]: 20 nM; GI50 [5, 21]: 30 nM; GI50 [7, 22]: 50 nM; GI50 ([8]; Hela cells, 72 hours incubation, read-out: GI50 Hela): 60 nM; GI50 [9, 23]: 90 nM; GI50 [11, 24]: 60 nM; GI50 [12, 25]: 350 nM; GI50 [14, 26]: 30 nM
16 nM	25 nM	37 nM	55 nM	39 nM	51 nM	47 nM	38 nM		80 nM	40 nM	20 nM	40 nM	50 nM	80 nM	30 nM	93 nM	30 nM	20 nM	C/C=C1\NC(=O)c2nc(ccc2F)CCNC(=O)C[C@@H](/C=C/CCSC(C)=O)OC(=O)[C@H](C(C)C)NC1=O [Compound 103]	
65 nM	86 nM	63 nM	52 nM	96 nM	62 nM	72 nM	183 nM	87 nM	980 nM	320 nM	130 nM	10 nM	20200 nM	10100 nM	1900 nM		1980 nM	1100 nM	CC(=O)SCC/C=C/[C@@H]1CC(=O)NCc2cccc(n2)C(=O)NC(=C(C)C)C(=O)N[C@@H](C(C)C)C(=O)O1 [Compound 20]	IC50 ([17]; Table 3, read-out: IC50 HDAC1, D (non-substituent)): 183 nM
